Results taken from patent US7083940B2, “Pregnancy-associated plasma protein-A2 (PAPP-A2)” (Como Biotech ApS, priority 2000, dated 2006).

Tested on: rIGFBP-5
Assay: Ligand blotting with radiolabeled IGF-II, activity of PAPP-A2 against IGFBP-5
Format: biochemical
Conditions: medium from cells transfected with pPA2
Method: Medium from 293T cells transfected with empty vector (−), or cDNA encoding PAPP-A2 (pPA2) (+) was incubated with each of the six IGFBPs (BP1–BP6), and the activity was assessed by ligand blotting using radiolabeled IGF-II.
Ligand blotting (Conover et al., 1993, J Clin Invest 91, 1129–37) with radiolabeled IGF-II (Bachem) was used to assay for activity against IGFBP-1 (from HepG2 conditioned medium), rIGFBP-2 (GroPep), rIGFBP-3 (gift of D. Powell), rIGFBP-4 (Austral), rIGFBP-5 (gift of D. Andress), and rIGFBP-6 (Austral). […] Experiments were carried out with media from cells transfected with pPA2 or empty vector.

PAPP-A2: recombinant pregnancy-associated plasma protein-A2, SEQ ID NO:2, metzincin metalloproteinase expressed in 293T cells
Dependence of cleavage on IGF: independent of the presence of IGF
